The values below come from ChEMBL document CHEMBL3272295, “Drugs derived from cannabinoids. 5. delta6a,10a-Tetrahydrocannabinol and heterocyclic analogs containing aromatic side chains” (J Med Chem, 1976).

Usually LD50 stands for the dose expected to kill half of the subjects tested. In general, inhibition in vivo refers to the change of the read-out against control, counted positive when it falls.

The nature of data set [1]: Acute toxicity in po dosed mouse. It is filed as organism-based. The note with it: in vivo.
Data set [2] concerns Rattus norvegicus. Kind of data set: Antipsychotic activity in rat assessed as reduction of methamphetamine-induced hyperactivity at 10 mg/kg, po administered prior to methamphetamine challenge relative to vehicle-treated control. The data set is classed as functional. Details: scale not given: the % may be the effect or the level left.
Data set [3] concerns Rattus norvegicus. Nature of the data set: Antihypertensive activity in spontaneously hypertensive rat model assessed as reduction in blood pressure at 30 mg/kg, po after 3 hrs. It is filed as functional. Details: scale not given: the % may be the effect or the level left.
Data set [4] has as its system Rattus norvegicus. Nature of the data set: Antihypertensive activity in spontaneously hypertensive rat model assessed as reduction in blood pressure at 30 mg/kg, po after 24 hrs. The data set is classed as functional. Details: scale not given: the % may be the effect or the level left.
For data set [5], the system named is Mus musculus. Kind of data set: Analgesic activity in mouse assessed as inhibition of acetic acid-induced writhing at 10 mg/kg, po administered 30 mins prior to acetic acid challenge measured after 5 mins for 20 mins. It is filed as functional. In general terms: In writhing tests, fewer writhes than in controls are read as antinociception.
The test system of data set [6] is Mus musculus. Nature of the data set: Antianxiety activity in albino BALB/cJ mouse assessed as reduction in footshock-induced fighting behavior at 10 mg/kg, po after 30 to 90 mins. Details: scale not given: the % may be the effect or the level left. It is filed as functional.
Data set [7] has as its system Rattus norvegicus. Kind of data set: Increase in motor activity in Long-Evans rat at 10 mg/kg, po after 2 hrs relative to vehicle-treated control. It is filed as functional.
In data set [8] the test system is Rattus norvegicus. Nature of the data set: Increase in acid output in Sprague-Dawley rat at 50 mg/kg, po administered 30 mins prior to pylorus ligation measured after 4 hrs relative to control. The data set is classed as functional.
Data set [9] concerns Rattus norvegicus. Nature of the data set: Antisecretory activity in Sprague-Dawley rat assessed as decrease in pepsin concentration at 50 mg/kg, po administered 30 mins prior to pylorus ligation measured after 4 hrs relative to control. The data set is classed as functional. Details: scale not given: the % may be the effect or the level left.
Data set [10] deals with Rattus norvegicus. Kind of data set: Increase in pepsin output in Sprague-Dawley rat at 50 mg/kg, po administered 30 mins prior to pylorus ligation measured after 4 hrs relative to control. The data set is classed as functional.
The test system of data set [11] is Rattus norvegicus. Nature of the data set: Increase in methamphetamine-induced hyperactivity in rat at 5 mg/kg, po administered prior to methamphetamine challenge relative to vehicle-treated control. It is filed as functional.
Data set [12] has as its system Felis catus. Kind of data set: Hypnotic activity in cat assessed as increase in total sleep time at 0.5 mg/kg administered orally through diet measured for 12 hrs by EEG analysis. It is filed as functional. The note with it: route oral.
For data set [13], the system named is Felis catus. Nature of the data set: Hypnotic activity in cat assessed as increase in non-REM sleep time at 0.5 mg/kg administered orally through diet measured for 12 hrs by EEG analysis. The data set is classed as functional. The note with it: route oral.
Data set [14] concerns Rattus norvegicus. Nature of the data set: Increase in volume in Sprague-Dawley rat at 50 mg/kg, po administered 30 mins prior to pylorus ligation measured after 4 hrs relative to control. It is filed as functional.
For data set [15], the system named is Rattus norvegicus. Kind of data set: Antisecretory activity in Sprague-Dawley rat assessed as decrease in acidity at 50 mg/kg, po administered 30 mins prior to pylorus ligation measured after 4 hrs relative to control. It is filed as functional. The arrangement: scale not given: the % may be the effect or the level left.
The test system of data set [16] is Mus musculus. Nature of the data set: Analgesic activity in mouse assessed as inhibition of acetic acid-induced writhing at 100 mg/kg, po administered 30 mins prior to acetic acid challenge measured after 5 mins for 20 mins. The data set is classed as functional.
Data set [17] has as its system Rattus norvegicus. Kind of data set: Increase in motor activity in Long-Evans rat at 5 mg/kg, po after 2 hrs relative to vehicle-treated control. It is filed as functional.

A value given as a limit tells only on which side of the number the result lay.

For the molecule `C#CCN1CCC2=C(C1)c1c(O)cc(C(C)CCc3ccc(F)cc3)cc1OC2(C)C` (stereo unspecified), the LD50 in data set [1] is no less than 1000 mg/kg. In addition, the Activity with Rattus norvegicus [2] was 0%; with Rattus norvegicus [3] it was 4%; in the data set on Rattus norvegicus [4], 13%; in the data set on Mus musculus [6], 0%; with Rattus norvegicus [7], 44%. In addition, the inhibition in vivo at 10 mg/kg in the data set with Mus musculus [5] worked out at 10%.

For `C#CCN1CCC2=C(C1)c1c(O)cc(CCCCC)cc1OC2(C)C`, the Activity in the data set on Rattus norvegicus [8] worked out at 6.1%; in the data set on Rattus norvegicus [9], 8.3%; in the data set with Rattus norvegicus [10], 18.3%; in the data set with Rattus norvegicus [11], 47%; in the data set with Rattus norvegicus [3], 0%; in the data set on Rattus norvegicus [4] it was 9%. In addition, the Activity was found to be 24.6% with Rattus norvegicus [14], 14.8% in the data set with Rattus norvegicus [15], 6% in the data set on Mus musculus [6] and 6% with Rattus norvegicus [17]. This molecule also showed an LD50 in data set [1] of no less than 1000 mg/kg. Besides, the Time was found to be 28 min in the data set on Felis catus [12] and 12 min with Felis catus [13]. In the data set with Mus musculus [16], the inhibition in vivo at 100 mg/kg stood at 19%.
